# Measurements published in paper PMC2270722, “Influence of Cocoa Flavanols and Procyanidins on Free Radical-induced Human Erythrocyte Hemolysis” (Clinical and Developmental Immunology, 2005).
# What was measured:
# [1] = antioxidant activity (preliminary, unpublished); details: preliminary work, unpublished data
# [2] = plasma flavanol and dimer concentrations by HPLC after cocoa beverage; format: in vivo, human; details: for time by which detected in the plasma: after consumption of the cocoa beverage, human subjects; for concentration in human plasma reached: after high dose of cocoa (0.50 g/kg BW)
# Excerpt: (§1) Influence of cocoa flavanols and procyanidins on free radical-induced human erythrocyte hemolysis QIN YAN ZHU1 , DEREK D. SCHRAMM1 , HEIDRUN B. GROSS1 , ROBERTA R. HOLT1 , SUN H. KIM3 , TOMOKO YAMAGUCHI4 , CATHERINE L. KWIK-URIBE5 , & CARL L. KEEN1,2 1 Department of Nutrition, University of California, One Shields Avenue, Davis, CA 95616-8669, 2 Internal Medicine, University of California, One Shields Avenue, Davis, CA 95616-8669, 3 Department of Food Service Management and Nutrition, Kongju National University, Republic of Korea, 4 Department of Food Science and Nutrition, Nara Women's University, Japan, and 5 Analytical & Applied Sciences, Mars Incorporated, Hackettstown, NJ, USA Abstract Cocoa can be a rich source of antioxidants including the flavan-3-ols, epicatechin and catechin, and their oligomers (procyanidins). While these flavonoids have been reported to reduce the rate of free radical-induced erythrocyte hemolysis in experimental animal models, little is known about their effect on human erythrocyte hemolysis. The major objective of this work was to study the effect of a flavonoid-rich cocoa beverage on the resistance of human erythrocytes to oxidative stress. A second objective was to assess the effects of select purified cocoa flavonoids, epicatechin, catechin, the procyanidin Dimer B2 and one of its major metabolites, 30 -O-methyl epicatechin, on free radical-induced erythrocyte hemolysis in vitro. Peripheral blood was obtained from 8 healthy subjects before and 1, 2, 4 and 8 h after consuming a flavonoid-rich cocoa beverage that provided 0.25 g/kg body weight (BW), 0.375 or 0.50 g/kg BW of cocoa. Plasma flavanol and dimer concentrations were determined for each subject. Erythrocyte hemolysis was evaluated using a controlled peroxidation reaction. Epicatechin, catechin, 30 -O-methyl epicatechin and (-)-epicatechin-(4b . 8)-epicatechin (Dimer B2) were detected in the plasma within 1 h after the consumption of the beverage. […] The duration of the lag time, which reflects the capacity of cells to buffer free radicals, was increased. […] Erythrocytes from subjects consuming flavonoid-rich cocoa show reduced susceptibility to free radical-induced hemolysis p , 0:05. Keywords: Cocoa, flavanol, membrane oxidation, erythrocyte,-catechin, 3 0 -O-methyl epicatechin Introduction Flavonoids are a diverse group of polyphenolic compounds occurring in fruit, vegetables, tea and red wine. Diets rich in these compounds have been associated with a reduced risk for cardiovascular disease (Knekt et al. 2002, Kris-Etherton et al. 2004, Mennen et al. 2004, Morton et al. 2000, Sagara et al. 2004, Sesso et al. 2003). Depending on their processing, cocoa and chocolate can be rich sources of flavonoids, particularly the subclass of oligomeric flavonoids known as procyanidins (Adamson et al. 1999, Sanchez-Rabaneda et al. 2003, Steinberg et al. 2003) (Figure 1). Flavanols and procyanidins isolated from cocoa and chocolate have received considerable attention over the last several years as potential cardiovascular protective agents with putative positive effects on platelet function, blood pressure regulation, nitric oxide production, oxidative defense and the immune system (Heiss et al. 2003, Maron, 2004; Fisher et al. 2003; Pearson et al. 2002, Sadik et al. 2003, Taubert et al. 2003, Wan et al. 2001). ISSN 1740-2522 print/ISSN 1740-2530 online q 2005 Taylor & Francis Group Ltd. DOI: 10.1080/17402520512331329514 Correspondence: Carl L. Keen, Department of Nutrition, University of California, One Shields Avenue, Davis, CA 95616-8669. Tel: 1 530 752 6331. Fax: 1 530 752 8966. E-mail: clkeen@ucdavis.edu Clinical & Developmental Immunology, March 2005; 12(1): 27-34 These compounds can modulate the actions of oxidant-responsive transcription factor NF-kB (Mackenzie et al. 2004), and diets rich in cocoa flavonoids may be associated with reductions in DNA oxidative damage (Orozco et al. 2003). […]
# [3] = system: human erythrocytes; assay: in vitro AAPH-induced erythrocyte hemolysis, percent inhibition by purified flavonoids; format: cell-based; parameters: level of protection compared with ascorbic acid: dose or concentration left out as unconfirmed; details: for level of protection compared with ascorbic acid: Figure 3; for protection of human erythrocytes from free radical-induced hemolysis at lowest concentration: concentration as low as 2.5 mM; for protection against AAPH-induced erythrocyte hemolysis: concentrations 2.5 to 20 μM, 200 mM AAPH, 3 h
# Excerpt: as §1
Compound,time by which detected in the plasma [2] [h],concentration in human plasma reached [2],antioxidant activity compared with Dimer B2 [1],level of protection compared with ascorbic acid [3],protection of human erythrocytes from free radical-induced hemolysis at lowest concentration [3],protection against AAPH-induced erythrocyte hemolysis [3],protection compared with Dimer B2 ([3]; individual compounds in vitro)
"Oc1cc(O)c2c(c1)O[C@H](c1ccc(O)c(O)c1)[C@H](O)[C@H]2c1c(O)cc2c(c1O)C[C@@H](O)[C@@H](c1ccc(O)c(O)c1)O2 [Dimer B5, epicatechin-(4b . 6)-epicatechin]",–,–,more antioxidant activity than Dimer B2,–,–,–,–
COc1cc([C@H]2Oc3cc(O)cc(O)c3C[C@H]2O)ccc1O [3ʹ-O-methyl epicatechin],≤ 1,–,–,exceeded that of ascorbic acid,significantly protect,dose-dependent protection,–
(-)-epicatechin-(4β > 8)epicatechin [Dimer B2],≤ 1,–,–,exceeded that of ascorbic acid,–,dose-dependent protection,–

# Further lines, with some results ahead:
time by which detected in the plasma [2] [h],concentration in human plasma reached [2],Compound,antioxidant activity compared with Dimer B2 [1],level of protection compared with ascorbic acid [3],protection of human erythrocytes from free radical-induced hemolysis at lowest concentration [3],protection against AAPH-induced erythrocyte hemolysis [3],protection compared with Dimer B2 ([3]; individual compounds in vitro)
≤ 1,210 nm,O.Oc1cc(O)c2c(c1)O[C@H](c1ccc(O)c(O)c1)[C@@H](O)C2 [catechin],–,exceeded that of ascorbic acid,significantly protect,dose-dependent protection,–
≤ 1,2860 nM,"Oc1cc(O)c2c(c1)O[C@H](c1ccc(O)c(O)c1)[C@H](O)C2 [epicatechin, (-)-epicatechin]",–,exceeded that of ascorbic acid,significantly protect,dose-dependent protection,stronger protection than Dimer B2
